Measurements taken from PubChem BioAssay AID449762 (Southern Research Specialized Biocontainment Screening …, 2010).
Records with an inconclusive call do not appear.

Tested on: M. tuberculosis H37Rv growth inhibition, 7H9 media
Test: M. tuberculosis growth inhibition, HTS (AID 449762);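 note: bacterial growth assessed after seven days of incubation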
Conditions: for IC90: measured here: IC90 growth inhibition

Compound | IC50 [µM] | IC90 [µM]
Cc1c(CN2CCC(CO)(Cc3cccc(C(F)(F)F)c3)CC2)c2ccccc2n1C | 20.6 | 28.9
CCCCS(=O)(=O)/C=C\C=C/S(=O)(=O)CCCC | 1.35 | 1.96
CC(=O)N1C(Nc2ccc(Cl)cc2)CCN1c1ccccc1 (stereo unspecified) |  | > 100
CN(C(=O)COC(=O)c1sc2ccccc2c1Cl)C1CCCCC1 | 4.8 | 15
C#CCCc1cscc1/C=[N+](\[O-])c1ccc(C(=O)OCC)cc1 | 99.1 | > 100
CN1CCN(C2Cc3ccccc3Sc3cc(C(F)(F)F)ccc32)CC1 (stereo unspecified) | 13.5 | 15.6
CCOC(=O)c1nc2sc3c(c2c(=O)[nH]1)CCC(C)C3 (stereo unspecified) | 46.7 | > 100
O=C(OCc1ccccc1F)c1cnc(Cl)c(Cl)c1 | 13.1 | 49.8
C=CC[N@@+]12CC[C@]34c5ccccc5N5/C=C6\C7N(/C=C(\C53)[C@@H](C[C@@H]41)/C(=C/CO)C2)c1ccccc1[C@@]71CC[N@@+]2(CC=C)C/C(=C\CO)[C@@H]6C[C@@H]12 (stereo partly specified) | 56.7 | > 100
CC(=O)Nc1ccc(S(=O)(=O)Nc2ccc(N3CCCCC3)cc2)cc1 | 12.4 | 13.8
COc1cc(-c2ccc3oc(-c4ccsc4)cc(=O)c3c2)cc(OC)c1OC | 2.07 | 17.6
CCCCCCC#Cc1ccc2c(c1)COc1c3ccccc3nn1-2 | 93.8 | > 100
O=C(NCCN1CCN(c2cccc(Cl)c2)CC1)c1ccc(CSc2nc3ccncc3[nH]2)cc1 | 23.2 | 35.3
O=C(OCc1ccccc1)/C(=C(\O)c1ccccc1Br)c1ccc(-c2ccccc2)cn1 | 23.9 | 45.8
COc1cccc2sc3ccc(C#CC4(N)CCCCC4)cc3c(=O)c12 | 61.6 | 82.2
Cc1cc(OCc2cc(C(=O)N(C)CCc3cnn(C)c3)no2)cc(C)c1Cl | 26.9 | 51.4
CCOc1ccc(-n2c(O)c(/C=N/Nc3nnc(C)c(=O)[nH]3)c3ccccc3c2=O)cc1 | 11.3 | > 100
N#C/C(=C1\CCCN1)c1nc(-c2ccccc2)cs1 |  | > 100
O=C(Nc1nc2ccc(SC(F)F)cc2s1)c1ccc(NS(=O)(=O)c2ccc(F)c(F)c2)cc1 | 16.5 | 24.7
COc1ccc(N=N/C(=C\O)C(=O)c2cccs2)cc1 |  | > 100
O=C(c1ccco1)N1CCN(C(=O)C2CC(c3ccc(Cl)c(Cl)c3)=NO2)CC1 (stereo unspecified) | 3.88 | 11
Oc1cccc(-c2nc3ccc4ccccc4c3c3c2CCC3)c1 | 7.31 | 26.8
CCCn1c(=N)c(C(=O)NCc2ccc3c(c2)OCO3)cc2c(=O)n3cccc(C)c3nc21 | 19.8 | 29

Compound | IC50 [µM] | IC90 [µM]
O=C(CSCc1ccc([N+](=O)[O-])cc1)N/N=C/c1ccncc1 | 3.47 | 10.3
O=[N+]([O-])c1cc(-c2nc(-c3ccncc3)no2)cc([N+](=O)[O-])c1 | 3.64 | 11.4
Cc1cc(CC(C)C)n(-c2nc3ccccc3c(=O)n2OCC(N)=O)n1 | 3.88 | 12.7
CC(=O)OC1=Cc2c(ccc3ccc(=O)oc23)OC1(C)C | 14 | 31.6
Cc1ccc(C#CC[N+]2(CC#Cc3ccc(C)cc3)CCCCC2)cc1 | 12.7 | 14.4
CCOC(=O)c1nn(-c2ccc(C)c(C)c2)cc1O | 27.1 | > 100
O=C(N/N=C/c1cn(-c2ccccc2)nc1-c1cccs1)c1ccc(Cl)cc1 |  | > 100
CC(OC(=O)c1cnc2ccccc2n1)c1ccccc1Cl (stereo unspecified) | 13.1 | 37
Cc1ccc(N/N=C/C=C/c2ccco2)cc1 | 61.2 | 98.2
CSc1ncc(C(=O)Nc2ccc(Br)cn2)c(C)n1 | 0.93 | 3.9
COc1ccc(/C=C2\CCC/C(=C\C=N\N(C)C)C2=O)cc1 | 8.19 | 16.2
COCc1nnc(NC(=O)C2CC(=O)N(c3ccc(C)c(Cl)c3)C2)s1 (stereo unspecified) | 51.1 | > 100
CCOc1ccc(N2CCc3c(C)nc(SC)nc32)cc1 | < 0.2 | > 100
O=C(Nc1ccc(N2CCN(C(=O)c3ccco3)CC2)cc1)C(c1ccccc1)c1ccccc1 | 12.1 | 22.6
Cc1cc2oc3ccc(NCCCn4ccnc4)cc3c(=O)c2cc1C | 18.2 | 27.5
COc1ccc2c(c1)CC/C(=C\C=C\c1ccccc1OC)C2=O | 7.79 | 17.8
NC(=O)CSc1nnc(COc2ccc3ccccc3c2)o1 | 1.75 | > 100
CCOC(=O)N1CCc2c(sc(NC(=O)c3ccc(Cl)s3)c2C(N)=O)C1 | 6.17 | 20.5
Fc1ccc(C[n+]2c(-c3ccccc3)cc(-c3ccccc3)cc2-c2ccccc2)cc1 | 32.3 | 44.3
CC(C)NC(=O)c1sc(=S)n2c1[nH]c(=O)c1ccc(C(=O)NCCc3ccc(Cl)cc3)cc12 | 0.3 | 0.49
O=C(c1cc([N+](=O)[O-])cc([N+](=O)[O-])c1)N(Cc1nnc(-c2ccccc2Cl)o1)C1CC1 | 2.59 | 8.42
O=C(CCl)N1CCN2C(=O)c3ccccc3C12c1ccc(Cl)cc1 (stereo unspecified) | 5.42 | 7.84
CCCCN(C)C(=O)Cc1c(OC)ccc2cc(Br)ccc12 | 19.5 | 29.2

Compound | IC50 [µM] | IC90 [µM]
C(=N\Nc1ncnc2sc3c(c12)CCC3)/c1cccs1 | 5.84 | 16.8
Cc1[nH][nH]c(=O)c1C(c1ccc(-c2ccc(Cl)c(Cl)c2)o1)c1c(C)[nH][nH]c1=O | 53.4 | 85.6
Cc1ccc2[nH]c3c(c2c1)CN(C(=O)CN1CCN(c2ccccn2)CC1)CC3 |  | > 100
CCCSc1nn2c(=O)c3ccccc3nc2s1 | 8.34 | 25.2
COc1cc2[nH]c3c(N4CCN(c5ccccn5)CC4)ncnc3c2cc1OC | 13.6 | > 50
COC(=O)[C@H](CC(C)C)NC(=O)c1cc2c(cn1)[nH]c1ccccc12 | 8.55 | 29.2
Nc1c2c(nc3ccn(Cc4ccccc4)c(=O)c13)CCC2 | 13.7 | 33.6
S=c1nc2ccccc2c2nc(-c3ccccc3)[nH]n12 | 10.4 | 14.6
CCCCCC(O)c1cccc(OCc2ccc3ccccc3n2)c1 (stereo unspecified) | 44.7 | 50.5
CC(=O)c1c(C)n(C)c2ccc(OC(=O)c3ccc([N+](=O)[O-])cc3)cc12 | 11.2 | > 100
CC(C)Cc1ccc(C(C)C(N)=NCCc2ccccc2)cc1 (stereo unspecified) | 22.6 | 25.8
N#C/C=C\Oc1ccc(Cl)cc1N | 14 | 23.3
CN1C(=O)N(C)c2ccc(C=O)c3cccc1c23 | 41 | 57.2
CC1=CC(=O)C(C(C)C)=C/C1=N/OS(=O)(=O)c1ccccc1 | 1.44 | 4.12
CCOc1ccc(-n2cc(-c3ccccc3)c3c(=O)[nH]cnc32)cc1 | 8.41 | 27.5
C(C#CCCCCCCCCC[n+]1ccccc1)#CCCCCCCCCC[n+]1ccccc1 | 2.8 | 4.43
Cc1c(CN(C)C)c2c(n1Cc1ccccc1)C(=O)c1ccc(Br)cc1-2 | 17.6 | 22
CCNc1nc(Nc2ccc(C)c(Cl)c2)c2cnn(C)c2n1 | 43.3 | > 100
COC(OC)c1ccnc(-c2ccc(OC(=O)c3cccs3)cc2)n1 | 62.4 | > 100
COc1ccc(OCCCC(=O)OC(C)C(=O)Nc2ccccc2[N+](=O)[O-])cc1 (stereo unspecified) | 15.4 | > 100
O=C(O)c1ccc(N2C(=O)/C(=C/c3ccc(-c4ccc([N+](=O)[O-])cc4)o3)C=C2c2ccccc2)cc1 | 17.2 | 40.2
N#Cc1c(SCC(N)=O)nsc1SCc1ccccc1Cl | 12.6 | 34.7
COc1ccc(NC(=O)/C(Cl)=C(/Cl)S(=O)Cc2ccc(C)cc2)cn1 (stereo unspecified) | < 0.2 | < 0.2

Compound | IC50 [µM] | IC90 [µM]
Cc1ccc2nc3c(cc(C(=O)NCc4ccco4)c(=N)n3Cc3ccco3)c(=O)n2c1 | 31.9 | > 100
Cc1ccccc1C(=O)Nc1ccc(N(C)C)c2ccccc12 | 16.6 | > 100
Cc1cc(C)c2oc(-c3ccc(C)c(NC(=S)NC(=O)/C=C/c4ccco4)c3)nc2c1 | 59.8 | > 100
CO/N=C(\Cn1ncc(N2CCCC2)c(Cl)c1=O)c1ccc(Cl)cc1 | 16.9 | 27.5
CCOC(=O)c1c(NC(=O)CCl)sc(CN(C)C)c1-c1ccccc1 | 0.92 | 4.68
CN(c1ccccc1)c1ccc(/C=C/[N+](=O)[O-])cc1 | 8.97 | 16.9
N=C1C(c2nc3ccccc3[nH]2)=C(O)CN1NC(=O)c1c[nH]c2ccccc12 | 13.5 | 30.7
CC(=O)n1cc(N(C(=O)CCl)c2ccc(Cl)cc2)c2ccccc21 | 1.82 | 3.99
Cc1ccnc(NC(=O)c2cc3ccccc3o2)c1 | 43.9 | > 100
CC1CC2=C(CC1/C=N/NC(N)=S)C(C)(C)CCC2 (stereo unspecified) | 14.4 | 24.6
CCOc1ccc(OCCSc2ccc(S(=O)(=O)N3CCN(C)CC3)cn2)cc1 | 22.1 | 28.6
CCOC(=O)CSc1snnc1-c1ccccc1 | 13.9 | 59.6
CCCOc1cccc(C(=O)NC(=S)Nc2ccc(N3CCN(C)CC3)cc2)c1 |  | > 100
CCOC(=O)c1[nH]c(CN2CCN(c3ccc(OC)cc3)CC2)c(C(=O)OCC)c1C | 23 | 26
CCOc1cc(CNCCCN2CCOCC2)cc(Br)c1OCC(=O)Nc1cccc(C(F)(F)F)c1 | 22.1 | 31.7
CCOC(=O)CN(C#N)c1nc(N(C)C)nc(N(C)C)n1 | 11.1 | 12.5
Cc1csc(NC(=O)CCCC(=O)O)c1-c1nc2ccccc2s1 | 35.8 | 79.6
CC1(C)CN(c2ccccc2)N(C(=O)c2ccc(C#N)cc2)C1=O | 72.4 | > 100
O=C(O)C1CC=CCC1C(=O)N1CCN(c2nc(-c3ccccc3Cl)c3cc(Br)ccc3n2)CC1 (stereo unspecified) | 46.4 | 78.5
CCCCNC(=O)Nc1nnc(-c2ccc(OCC)cc2)o1 |  | > 100
